Data on two compounds can be found in ChEMBL document CHEMBL4725331, “An investigative study of antitumor properties of a novel thiazolo[4,5-d]pyrimidine small molecule revealing superior antitumor activity with CDK1 selectivity and potent pro-apoptotic properties” (Bioorg Med Chem, 2020).

In test [1] the test system is HOP-92. Nature of the test: Antiproliferative activity against human HOP-92 cells assessed as inhibition of cell growth measured after 48 hrs by SRB assay. The class given is functional. For orientation: In SRB staining, fixed cells bind dye roughly in proportion to their protein.
The subject of test [2] is IGROV-1. Nature of the test: Antiproliferative activity against human IGROV-1 cells assessed as inhibition of cell growth measured after 48 hrs by SRB assay. The class given is functional.
Test [3] relates to HCT-116. Nature of the test: Cytotoxicity against human HCT-116 cells assessed as reduction in cell viability after 48 hrs by MTT assay. The class given is functional, cell-based. The note with it: HCT-116, 48 h. (In general: Formazan colour is commonly taken as a measure of viable cells.)
Test [4] relates to WI-38. Nature of the test: Cytotoxicity against human WI-38 cells assessed as reduction in cell viability after 48 hrs by MTT assay. To be noted: WI-38, 48 h. The class given is cell-based.

By GI50 is commonly meant the concentration at which growth is held to half of that of the control. As for `COc1ccc(-n2c(=S)sc3c(=O)[nH]c(C)nc32)c(OC)c1`, the 50% growth inhibitory concentration (GI50) in test [1] is below 0.01 µM; in test [2], 0.18 µM.
The IC50 is the concentration that gives 50% inhibition. As to `CC[C@H](CO)Nc1nc(NCc2ccccc2)c2ncn(C(C)C)c2n1` [SELICICLIB], the results for the concentration for half-maximal inhibition (IC50) in test [3] and in test [4] were 15.5 µM and 24.1 µM, respectively.
